From patent EP4806421A2, “PHARMACEUTICAL COMPOSITIONS OF NANOCRYSTALLIZED XANTHATIN AND USE THEREOF AS AN ANTI-TUMOR AGENT” (Centro de Investigación y Desarrollo de Medicamentos CIDEM, priority 2023, dated 2025)

Tests used:
[1] = test system: HT-29 human colorectal adenocarcinoma tumor line; experiment: Cell cycle progression by flow cytometry (PI/RNase staining); type: cell-based; conditions: HT-29 cells, 10 and 20 µM, 48 h, compared with untreated control and docetaxel 2 µM positive control
Procedure: Assay to evaluate the in vitro antiproliferative activity of nanocrystallized xanthatin by flow cytometry.
The antiproliferative activity through cell cycling arrest was evaluated in HT-29 cells. Cells were cultured in 6-well plates (2×10^5 and 1×10^5 cells/ml, respectively) until 90% confluence was reached. Three xanthatin samples were evaluated: commercial, laboratory-isolated, and nanocrystallized xanthatin at concentrations of 10 and 20 µM. Prior to treatment, both commercial and isolated xanthatin were dissolved in DMSO, unlike nanocrystallized xanthatin, which was added directly to the cell culture medium. Medium supplemented with 1% FBS was used as the control. Docetaxel 2 µM was used as a positive control for cell cycle arrest in G2/M. The treatments were added to the medium supplemented with 1% FBS on the day after seeding the cells on the plates. The cells were incubated for 48 h upon the treatments, harvested, fixed in 100% ethanol, and stored at -20°C. Cell cycle distribution was next assessed using flow cytometry. On the day of the assay, samples were incubated with a PI/Rnase mixture at room temperature and in the dark for 20 min prior to analysis.

[2] = test system: murine U14 cervical carcinoma cells; experiment: In vivo antitumor effect of in situ gelation containing xanthatin nanocrystals, tumor implant near the cervix; set-up: species or system female BALB/c mice; conditions: hydrogel intravaginal 0.850 mg nanocrystallized xanthatin per mouse daily for 5 days, carboplatin i.v. 0.675 mg per mouse for 3 days
Procedure: Evaluation of the in vivo antitumor effect of in situ gelation containing xanthatin nanocrystals was performed using murine U14 cervical carcinoma cells inoculated into the cervix of female BALB/c mice with an average weights of 22-24 g. Tumor implantation was performed by inoculating the submucosa near the cervix of each animal with 25 µL of cell suspension in PBS, with a total of 4×10^5 cells/mouse. Four randomly distributed groups of 6 animals per group were formed. The treatment schedule was carried out for 5 days with a daily intravaginal infusion of the thermosensitive hydrogel containing the xanthatin nanocrystals (8.5 µL, 0.850 mg of nanocrystallized xanthatin per mouse) and placebo, and for 3 days with a daily intravaginal infusion of […] Tumor weight and tumor inhibition rates were evaluated. Tumor inhibition rate was calculated using the following formula: TIR = (Aw −Ax)/([…]) × 100 [formula]
Where: • TIR means tumor inhibition rate in %. • AW means the average weight of tumors in the control group. • Ax means the average weight of the tumors of the treated group.

[3] = test system: HT-29 colorectal adenocarcinoma; experiment: MTT reduction assay, cell viability (HT-29); type: cell-based, human; conditions: HT-29 cells, 10 and 20 µM, 24 h, isolated xanthatin dissolved in DMSO, nanocrystals added directly to the medium
Procedure: (§1) Cell growth inhibition of nanocrystallized xanthatin assessed using the MTT assay.
(§2) The viability of the cultured cells was assessed using the MTT reduction assay. The assay was performed using the method described by Mosmann (1983). HT-29 and HeLa cells were seeded in 96-well plates at 10^4 cells/ml and 5x10^3 cells/ml respectively. The cells were cultured in Dulbecco's modified Eagle's medium (DMEM) supplemented with 10% FBS, 1% glutamine, triple antibiotic (3A), and 25 mM glucose, and maintained at 37°C in a 5% CO2 incubator until 80-90% confluence. After 24h of incubation, to ensure cell adhesion, the medium was removed and different concentrations (10 and 20 µM) of either commercial xanthatin, isolated xanthatin, and xanthatin nanocrystals, or as a negative control medium supplemented with 1% DMSO, were added. Prior to treatment, the commercial and isolated xanthatin samples were dissolved in DMSO, unlike the nanocrystallized xanthatin that was directly added to the cell culture medium. The prepared plates were incubated for 24 h, and 50 µL MTT (5 mg/ml) per well was added to a final concentration of 1 mg/ml. […] Relative cell viability was determined by measuring the absorbance at 540 nm on an ELISA plate reader (Tecan Sunrise MR20-301, TECAN Austria). Absorbance is directly proportional to the level of cell proliferation or viability. […]

[4] = test system: HeLa cervical carcinoma tumor lines; experiment: MTT reduction assay, cell viability (HeLa); type: cell-based, human; conditions: HeLa cells, 10 and 20 µM, 24 h, isolated xanthatin dissolved in DMSO, nanocrystals added directly to the medium
Procedure: as §1, §2

SMILES: C=C1C(=O)O[C@H]2C[C@H](C)C(/C=C/C(C)=O)=CC[C@H]12 [commercial xanthatin, xanthatin]
- cell cycle arrest in the G2/M phase [1]: no statistically significant differences

SMILES: N.N.O=C([O-])C1(C(=O)[O-])CCC1.[Pt+2] [injectable carboplatin, carboplatin]
- tumor inhibition rate ([2]; calculated from average tumor weights): 54.4%
- tumor weight ([2]; with respect to the placebo and control groups): significant decrease

SMILES: C=C1C(=O)O[C@H]2C[C@H](C)C(/C=C/C(C)=O)=CC[C@H]12 [laboratory isolated xanthatin, xanthatin]
- viability inhibition [3]: significantly higher than that of commercial xanthatin
- viability inhibition [4]: significantly higher than that of commercial xanthatin
- cell cycle arrest in the G2/M phase ([1]; listed as isolated xanthatin): induced cell cycle arrest in the G2/M phase
